These results are taken from patent EP0871454B1, “PHOSPHOROUS-CONTAINING CYSTEINE AND SERINE PROTEASE INHIBITORS” (CEPHALON, INC., priority 1995, dated 1997).

The test concerns the target T1, Calpain I (Homo sapiens, UniProt P07384).
T1 construct: made in house
T1 sequence (P07384 1-714): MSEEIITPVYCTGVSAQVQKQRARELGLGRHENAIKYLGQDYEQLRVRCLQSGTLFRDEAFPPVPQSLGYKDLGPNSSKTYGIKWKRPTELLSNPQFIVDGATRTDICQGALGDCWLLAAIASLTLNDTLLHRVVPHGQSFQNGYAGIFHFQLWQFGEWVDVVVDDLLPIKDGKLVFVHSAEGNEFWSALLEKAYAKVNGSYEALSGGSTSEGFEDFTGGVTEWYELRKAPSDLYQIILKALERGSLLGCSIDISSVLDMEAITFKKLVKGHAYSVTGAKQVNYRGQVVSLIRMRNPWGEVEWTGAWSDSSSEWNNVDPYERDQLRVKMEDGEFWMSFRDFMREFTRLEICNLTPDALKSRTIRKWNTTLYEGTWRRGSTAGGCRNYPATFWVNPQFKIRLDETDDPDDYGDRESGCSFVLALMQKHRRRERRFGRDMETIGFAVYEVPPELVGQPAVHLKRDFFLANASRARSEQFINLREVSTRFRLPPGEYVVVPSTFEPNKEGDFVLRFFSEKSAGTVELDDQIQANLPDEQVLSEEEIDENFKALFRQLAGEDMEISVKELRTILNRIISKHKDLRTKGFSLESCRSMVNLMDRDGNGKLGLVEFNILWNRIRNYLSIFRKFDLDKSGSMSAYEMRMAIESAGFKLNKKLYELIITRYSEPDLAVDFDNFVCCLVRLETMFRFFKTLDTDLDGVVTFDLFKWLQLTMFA
T1 sequence (P04632 1-268 partner): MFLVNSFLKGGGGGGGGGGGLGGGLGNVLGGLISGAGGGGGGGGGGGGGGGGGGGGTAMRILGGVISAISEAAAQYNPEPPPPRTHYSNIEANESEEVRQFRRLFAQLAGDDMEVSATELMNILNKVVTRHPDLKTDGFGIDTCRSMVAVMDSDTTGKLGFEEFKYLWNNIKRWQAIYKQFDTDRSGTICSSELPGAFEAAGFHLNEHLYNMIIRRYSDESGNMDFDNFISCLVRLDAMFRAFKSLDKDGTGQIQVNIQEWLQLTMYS
Nature of the test: Inhibition and rate of inactivation of calpain I activity (Succ-Leu-Tyr-MNA substrate hydrolysis). Conditions: for kobs/I: apparent second order rate constant of inactivation, pseudo-first order conditions, compounds tested at 0.1 µM, mean of three or more single cuvette analyses. It counts as biochemical. As for the experimental part:
Inhibition and Rate of Inactivation of Cysteine Protease Activity
To evaluate inhibitory activity, stock solutions (40 times concentrated) of each compound to be tested were prepared in 100% anhydrous DMSO and 5 µl of each inhibitor preparation were aliquoted into each of three wells of a 96 well plate. Calpain I, prepared by a modification of the method of W. J. Lee et al. (Biochem. Internatl. 22: 163-171 (1990)), was diluted into assay buffer (i.e., 50mM Tris, 50mM NaCl, 1mM EDTA, 1mM EGTA, and 5mM β-mercaptoethanol, pH 7.5 including 0.2mM Succ-Leu-Tyr-MNA) and 175 µl aliquoted into the same wells containing the independent inhibitor stocks as well as to positive control wells containing 5 µl DMSO, but no compound. To start the reaction, 20 µl of 50 mM CaCl2 in assay buffer was added to all wells of the plate, excepting three, which were used as background signal baseline controls. Substrate hydrolysis was monitored every 5 minutes for a total of 30 minutes. Substrate hydrolysis in the absence of inhibitor was linear for up to 15 minutes.
Inhibition of calpain I activity was calculated as the percent decrease in the rate of substrate hydrolysis in the presence of inhibitor (vi) relative to the rate in its absence (vo). Comparison between vo and vi was made within the linear range for substrate hydrolysis. […] Apparent second order rate constants were determined from analysis of reaction progress curves under pseudo-first order conditions. Each determination represents the mean of three or more independent single cuvette analyses continually monitored via a Perkin-Elmer LS50B spectrofluorimeter.
Values for kobs/I are given in Table I for compounds tested at 0.1 µM. [drawing 8]

On to `CC(C)CC(NC(=O)C12OC3COC(C)(C)OC3C1OC(C)(C)O2)C(=O)NC(Cc1ccccc1)C(=O)COP(=O)(OCc1ccccc1)OCc1ccccc1` [Example 37, Dibenzyl (3S)-[3-[(N-diisopropylidine-2-keto-L-gulonyl-L-leucyl)amino]-2-oxo-4-phenylbutyl] phosphate], for which the kobs/I was 113000 M⁻¹ s⁻¹.
For `CC(C)C[C@H](NC(=O)OCc1ccccc1)C(=O)N[C@@H](Cc1ccccc1)C(=O)COP1(=O)OCC(OCc2ccccc2)CO1` (some centres unmarked) [Example 47], the “% Inhib. @ 0.1 uM” value (0.1 uM compound, percent decrease in rate of substrate hydrolysis relative to no inhibitor) was found to be 47%.
For the compound `CC(C)C[C@H](NC(=O)OC(C)(C)C)C(=O)N[C@@H](Cc1ccccc1)C(=O)COP(=O)(OCc1ccccc1)OCc1ccccc1` [Example 35, Dibenzyl (3S)-[3-[(N-t-Butoxycarbonyl-L-leucyl)amino]-2-oxo-4-phenylbutyl]phosphate], the kobs/I amounted to 242000 M⁻¹ s⁻¹.
On the same count and under the same terms, for `CC(C)C[C@H](NC(=O)C12OC(CO)C(O)C1OC(C)(C)O2)C(=O)N[C@@H](Cc1ccccc1)C(=O)COP(=O)(OCc1ccccc1)OCc1ccccc1` (stereo partly drawn) [Example 38, Dibenzyl (3S)-[3-[(N-monoisopropylidine-2-keto-L-gulonyl-L-leucyl)amino]-2-oxo-4-phenylbutyl] phosphate)] the value was 116000 M⁻¹ s⁻¹; for `CC(C)C[C@H](NS(=O)(=O)N1CCOCC1)C(=O)N[C@@H](Cc1ccccc1)C(=O)COP(=O)(OCc1ccccc1)OCc1ccccc1` [Example 36, Dibenzyl (3S)-[3-[(N-morpholinylsulfonyl-L-leucyl)amino]-2-oxo-4-phenylbutyl] phosphate], 182000 M⁻¹ s⁻¹.
